The assay concerns CD8F1 mice, subcutaneous mammary adenocarcinoma, T/C%. In words: NCI In Vivo Anticancer Drug Screen. Data for tumor model Mammary Adenocarcinoma CD8F1 (subcutaneous) in CD8F1. Particulars: higher = larger tumour. The method in brief:
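Transplantable tumors were established in mice, animals were dosed with compound or vehicle, and survival or tumor size was then measured in both groups. The treated result was divided by the control result.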

Where [1] appears, read: endpoint: median tumor weight (est.), dose: 12.5 mg/kg/injection, schedule: Q07DX005 (ip), vehicle: saline with Tween-80.
The mark [2] stands for this setting: endpoint: median tumor weight (est.), dose: 25.0 mg/kg/injection, schedule: Q07DX005 (ip), vehicle: saline with Tween-80.
The mark [3] stands for this setting: endpoint: median tumor weight (est.), dose: 50.0 mg/kg/injection, schedule: Q07DX005 (ip), vehicle: saline with Tween-80.
[4] abbreviates: endpoint: median tumor weight (est.), dose: 100.0 mg/kg/injection, schedule: Q07DX005 (ip), vehicle: saline with Tween-80.
Setting [5] is: endpoint: median tumor weight (est.), dose: 200.0 mg/kg/injection, schedule: Q07DX005 (ip), vehicle: saline with Tween-80.
The mark [6] stands for this setting: endpoint: median tumor weight (est.), dose: 25.0 mg/kg/injection, schedule: Q07DX005 (ip), vehicle: Klucel (hydroxypropylcellulose) (HPC).
[7] abbreviates: endpoint: median tumor weight (est.), dose: 200.0 mg/kg/injection, schedule: Q07DX005 (ip), vehicle: Klucel (hydroxypropylcellulose) (HPC).

Where “and” joins values, the source holds several entries; their conditions need not be identical. Equal entries are not always repeated. Records with an inconclusive call do not appear.

`CC(=O)Nc1ccc(C(=O)C=O)cc1`: the T/C runs as follows: under setting [1], 114 % of control; under setting [2], 117 % of control; under setting [3], 84 % of control; under setting [4], 93 % of control; under setting [5], 80 % of control.

As to `C=Cc1cnc([N+](=O)[O-])n1C`, the T/C is, setting by setting: (endpoint: median tumor weight (est.), dose: 12.5 mg/kg/injection, schedule: Q07DX005 (ip), vehicle: Klucel (hydroxypropylcellulose) (HPC)) 122 % of control; under setting [6], 92 % of control; (endpoint: median tumor weight (est.), dose: 100.0 mg/kg/injection, schedule: Q07DX005 (ip), vehicle: Klucel (hydroxypropylcellulose) (HPC)) 42 % of control; under setting [7], 30 % of control.

With `Ic1ncnc2c1ncn2C1CCCO1` (centres undefined), the T/C is, setting by setting: under setting [6], 36 % of control; under setting [7], 55 % of control and 64 % of control; (endpoint: median tumor weight (est.), dose: 400.0 mg/kg/injection, schedule: Q07DX005 (ip), vehicle: Klucel (hydroxypropylcellulose) (HPC)) 41 % of control.

Take `O=C(NC1CCCCC1)OCc1c(COC(=O)NC2CCCCC2)c(-c2ccc(Cl)c(Cl)c2)n2c1CCC2`: the T/C by setting is: under setting [2], 94 % of control; under setting [3], 72 % of control; under setting [4], 20 % of control; under setting [5], 28 % of control.

As for `O=NN(CCCl)C(=O)NC1CCCCC1`, the T/C runs as follows: (endpoint: mean tumor weight (est.), dose: 25.0 mg/kg/injection, schedule: Q07DX003 (ip), vehicle: saline + alcohol) 88 % of control; (endpoint: mean tumor weight (est.), dose: 50.0 mg/kg/injection, schedule: Q07DX003 (ip), vehicle: saline + alcohol) 28 % of control; (endpoint: mean tumor weight, dose: 6.25 mg/kg/injection, schedule: Q01DX009 (ip), vehicle: saline) 78 % of control; (endpoint: mean tumor weight, dose: 12.5 mg/kg/injection, schedule: Q01DX009 (ip), vehicle: saline) 75 % of control; (endpoint: mean tumor weight, dose: 12.5 mg/kg/injection, schedule: Q07DX006 (ip), vehicle: saline + alcohol) 74 % of control; (endpoint: mean tumor weight, dose: 25.0 mg/kg/injection, schedule: Q01DX009 (ip), vehicle: saline) 28 % of control. Also, the T/C is 44 % of control (endpoint: mean tumor weight, dose: 25.0 mg/kg/injection, schedule: Q07DX006 (ip), vehicle: saline + alcohol); 61 % of control (endpoint: mean tumor weight, dose: 25.0 mg/kg/injection, schedule: Q07DX006 (ip), vehicle: saline); 11 % of control (endpoint: mean tumor weight, dose: 50.0 mg/kg/injection, schedule: Q07DX006 (ip), vehicle: saline + alcohol); 220 % of control (endpoint: mean tumor weight, dose: 50.0 mg/kg/injection, schedule: Q07DX006 (ip), vehicle: saline); 99 % of control (endpoint: median tumor weight (est.), dose: 8.0 mg/kg/injection, schedule: Q07DX005 (ip), vehicle: Klucel (hydroxypropylcellulose) (HPC)); 30 % of control (endpoint: median tumor weight (est.), dose: 16.0 mg/kg/injection, schedule: Q07DX005 (ip), vehicle: Klucel (hydroxypropylcellulose) (HPC)). The T/C is 29 % of control (endpoint: median tumor weight (est.), dose: 32.0 mg/kg/injection, schedule: Q07DX005 (ip), vehicle: Klucel (hydroxypropylcellulose) (HPC)); 66 % of control (endpoint: median tumor weight change, dose: 4.0 mg/kg/injection, schedule: Q01DX001 (ip), vehicle: Klucel (hydroxypropylcellulose) (HPC)); 73 % of control (endpoint: median tumor weight change, dose: 8.0 mg/kg/injection, schedule: Q01DX001 (ip), vehicle: Klucel (hydroxypropylcellulose) (HPC)); 91 % of control (endpoint: median tumor weight change, dose: 15.0 mg/kg/injection, schedule: Q01DX001 (ip), vehicle: Klucel (hydroxypropylcellulose) (HPC)); 55 % of control (endpoint: median tumor weight change, dose: 16.0 mg/kg/injection, schedule: Q01DX001 (ip), vehicle: Klucel (hydroxypropylcellulose) (HPC)); 34 % of control (endpoint: median tumor weight change, dose: 30.0 mg/kg/injection, schedule: Q01DX001 (ip), vehicle: Klucel (hydroxypropylcellulose) (HPC)). For the same molecule, the T/C reads like this: (endpoint: median tumor weight change, dose: 32.0 mg/kg/injection, schedule: Q01DX001 (ip), vehicle: Klucel (hydroxypropylcellulose) (HPC)) 40 % of control; (endpoint: median tumor weight change, dose: 60.0 mg/kg/injection, schedule: Q01DX001 (ip), vehicle: Klucel (hydroxypropylcellulose) (HPC)) -23 % of control; (endpoint: median tumor weight change, dose: 80.0 mg/kg/injection, schedule: Q01DX001 (ip), vehicle: Klucel (hydroxypropylcellulose) (HPC)) 17 % of control.

In the case of `Cc1ccc(S(=O)(=O)NC(=O)C2C(=O)CC3(CCCCC3)CC2=O)cc1`, the T/C was 93 % of control (endpoint: median tumor weight change, dose: 31.25 mg/kg/injection, schedule: Q01DX001 (ip), vehicle: Klucel (hydroxypropylcellulose) (HPC)); 101 % of control (endpoint: median tumor weight change, dose: 62.5 mg/kg/injection, schedule: Q01DX001 (ip), vehicle: Klucel (hydroxypropylcellulose) (HPC)); 122 % of control (endpoint: median tumor weight change, dose: 125.0 mg/kg/injection, schedule: Q01DX001 (ip), vehicle: Klucel (hydroxypropylcellulose) (HPC)).

In the case of `CN(C=O)C(C(=O)Nc1cccc2c(OC(=O)C(N(C)C=O)(N(C)C=O)N(C)C=O)c(N=Nc3ccc(S(=O)(=O)Nc4nccs4)cc3)cc(N=Nc3ccc(S(=O)(=O)Nc4nccs4)cc3)c12)(N(C)C=O)N(C)C=O` (tested in a mixture with another compound), the T/C by setting is: (endpoint: median tumor weight change, dose: 250.0 mg/kg/injection, schedule: Q01DX001 (ip), vehicle: saline with Tween-80) 100 % of control; (endpoint: median tumor weight change, dose: 1000.0 mg/kg/injection, schedule: Q01DX001 (ip), vehicle: saline with Tween-80) 119 % of control; (endpoint: median tumor weight change, dose: 2000.0 mg/kg/injection, schedule: Q01DX001 (ip), vehicle: saline with Tween-80) 63 % of control.

Turning to `c1ccc([P+](c2ccccc2)(c2ccccc2)c2ccccc2)cc1`, the T/C (endpoint: median tumor weight (est.), dose: 0.31 mg/kg/injection, schedule: Q07DX004 (ip), vehicle: saline) was 218 % of control and 86 % of control; the T/C (endpoint: median tumor weight (est.), dose: 0.31 mg/kg/injection, schedule: Q07DX005 (ip), vehicle: saline) is 98 % of control; the T/C (endpoint: median tumor weight (est.), dose: 0.62 mg/kg/injection, schedule: Q04DX005 (ip), vehicle: saline) is 50 % of control and 67 % of control; the T/C (endpoint: median tumor weight (est.), dose: 0.62 mg/kg/injection, schedule: Q07DX005 (ip), vehicle: saline) was 121 % of control; the T/C (endpoint: median tumor weight (est.), dose: 1.25 mg/kg/injection, schedule: Q04DX005 (ip), vehicle: saline) was 100 % of control; the T/C (endpoint: median tumor weight (est.), dose: 1.25 mg/kg/injection, schedule: Q07DX004 (ip), vehicle: saline) was 124 % of control. For the same molecule, the T/C is 62 % of control (endpoint: median tumor weight (est.), dose: 1.25 mg/kg/injection, schedule: Q07DX005 (ip), vehicle: saline); 73 % of control and 76 % of control (endpoint: median tumor weight (est.), dose: 2.5 mg/kg/injection, schedule: Q04DX005 (ip), vehicle: saline); 63 % of control (endpoint: median tumor weight (est.), dose: 2.5 mg/kg/injection, schedule: Q07DX005 (ip), vehicle: saline).

In the case of `OC1CCCC2CCCNC12` (centres undefined), the T/C was 206 % of control (endpoint: median tumor weight (est.), dose: 6.25 mg/kg/injection, schedule: Q07DX005 (ip), vehicle: saline with Tween-80); 102 % of control under setting [1]; 171 % of control under setting [2]; 73 % of control under setting [3].

Regarding `Nc1nc(/C=C(/O)c2ccccc2)c2ncn(C3OC(CO)C(O)C3O)c2n1` (centres undefined), under “endpoint: median tumor weight change, dose: 50.0 mg/kg/injection, schedule: Q01DX001 (ip), vehicle: distilled water + Tween-80”, the T/C was 91 % of control.

Consider `OCC1OC(n2cnc3c2NC=NC[C@H]3O)CC1O` (some centres undefined), for which the T/C is 104 % of control (endpoint: median tumor weight (est.), dose: 0.25 mg/kg/injection, schedule: Q07DX005 (ip), vehicle: water); 108 % of control (endpoint: median tumor weight (est.), dose: 0.5 mg/kg/injection, schedule: Q07DX005 (ip), vehicle: water); 63 % of control (endpoint: median tumor weight (est.), dose: 2.0 mg/kg/injection, schedule: Q07DX005 (ip), vehicle: water); 51 % of control (endpoint: median tumor weight (est.), dose: 4.0 mg/kg/injection, schedule: Q07DX005 (ip), vehicle: water); 60 % of control (endpoint: median tumor weight (est.), dose: 8.0 mg/kg/injection, schedule: Q07DX005 (ip), vehicle: water).

`CN(C)C(=O)c1cccc(COc2ccc(N3C(N)=NC(N)=NC3(C)C)cc2Cl)c1`: the T/C was 154 % of control (endpoint: median tumor weight (est.), dose: 8.0 mg/kg/injection, schedule: Q07DX005 (ip), vehicle: suspension in saline); 57 % of control (endpoint: median tumor weight (est.), dose: 16.0 mg/kg/injection, schedule: Q07DX005 (ip), vehicle: suspension in saline); 64 % of control (endpoint: median tumor weight (est.), dose: 32.0 mg/kg/injection, schedule: Q07DX005 (ip), vehicle: suspension in saline).

As to `c1csc(C[N+]23CN4CN(CN(C4)C2)C3)c1`, where the note is “endpoint: median tumor weight change, dose: 250.0 mg/kg/injection, schedule: Q01DX001 (ip), vehicle: saline”, the T/C was 80 % of control.

Turning to `CO[C@@]12[C@H](COC(N)=O)C3=C(C(=O)C(C)=C(N)C3=O)N1C[C@@H]1N[C@@H]12`, the T/C is 63 % of control (endpoint: median tumor weight (est.), dose: 0.37 mg/kg/injection, schedule: Q07DX006 (ip), vehicle: saline); 47 % of control (endpoint: median tumor weight (est.), dose: 0.75 mg/kg/injection, schedule: Q07DX006 (ip), vehicle: saline); 27 % of control (endpoint: median tumor weight (est.), dose: 1.5 mg/kg/injection, schedule: Q07DX006 (ip), vehicle: saline).

The values above are taken from PubChem BioAssay AID220 (DTP/NCI, 2004).
